Assay results as given in patent US11672265B2, “Egg replacement containing euglena-derived components” (NOBLEGEN, INC., priority 2019, dated 2023).
Like-named read-outs stand apart in the source and are kept apart here.

How the values were obtained:
[1] = tested on: microbial growth in non-heat treated biomass; assay type: cell-based, yeast, mold, bacteria; details: refrigerator (4° C.) 5 days, CP 1000 ppm, SB + PS 1000 ppm each, BV 0.25% (w/w)
Protocol: A biomass stored in the refrigerator at harvested pH (pH 2.75) for 2 days after harvest was chosen for microbial analysis. Four different pH conditions were used for non-heat treated biomass storage, pH 3, 4.5, 5 and 7. Three different antimicrobials (see Table 19 for the names and usage levels) were added to biomass at each pH selected. Control without any antimicrobial agents were also stored at different selected pHs. All the biomass samples were stored in a 4° C. refrigerator for 5 days and a TSA plate assay was done to see the presence of any microbes at the 5 day mark.
Samples without any microbial growth were considered for further storage study. After 16 days of storage, a TSA plating was done on all the heat treated biomass and non-heated biomass with SB+PS at pH 3, 4.5 and 5.

[2] = tested on: microbes in fresh biomass; experiment: Treatment of fresh biomass with nisin, TSA plates; assay type: cell-based, bacteria and yeast
Protocol: Method: Obtained fresh biomass and was washed 1 time with 2.5 times water. The biomass was diluted to 10% (solid content-10.36 w/w %, initial pH was pH 3.35 and the pH was adjusted to 7.2 using 2.5 M NaOH. […] Similarly, about the same amount of biomass without Nisin was also left at both conditions.

Compound | Microbial growth observed in non-heat treated biomass with antimicrobials ([1]; pH 3) | Microbial growth observed in non-heat treated biomass with antimicrobials ([1]; pH 4.5) | Presence of microbes in biomass treated with nisin ([2]; 70 ppm nisin, biomass pH 7.2, room temperature or 4° C., up to 24 hours) | Prevention of growth of microorganisms in fresh biomass or wet protein concentrate ([2]; 75 ppm of Nisin (conclusion))
CCC(=O)[O-].CCC(=O)[O-].[Ca+2] [CP, Calcium propionate] | yeast | yeast | – | –
nisin | – | – | Presence of microbes were found at all storage conditions irrespective of the presence of nisin or storage time | will not be able to prevent the growth of microorganisms
